The numbers were not newly measured in US20240016871A1, “Non-toxic furocoumarin-rich plant extracts and related compositions for use as antimicrobial substance or medicament and other therapeutic uses” (ICE-P LIFE, S.L., priority 2020, published 2024), which cites them from elsewhere.

One series concerns p53 knockout mouse. The conditions noted are these: platelets treated with amotosalen, after filtration and removal of amotosalen conjugated with pathogens.
In a further series the test system is DBA/2 strain mice. The conditions noted are these: single oral doses.

As to `Cc1oc2c(C)c3oc(=O)cc(C)c3cc2c1COCCN.Cl` [amotosalen, amotosalen HCl], the carcinogenicity result with p53 knockout mouse is given as “non-carcinogenic”. Take `O=c1ccc2ccccc2o1` [coumarin]: in the series with DBA/2 strain mice, the liver necrosis entry is “produce liver necrosis”.
